Data taken from PMC5986058 (FEBS Open Bio, 2018).

Key:
[1] = molecular target: T1, LTAaj (L-threonine aldolase from Aeromonas jandaei; L-allo-threonine aldolase) (Aeromonas jandaei, UniProt O07051); assay: UV-vis spectroscopy of external aldimine ([…] nm) and quinonoid ([…] nm); format: binding; settings: 50 mM sodium phosphate pH 8.0, 22 °C, 0.1 M glycine; PLP enzyme; covalent
T1 construct: gene ltaA; C-terminal His-tag, expressed in E. coli BL21(DE3), Ni-NTA purified, homotetramer, PLP-dependent
T1 sequence (O07051 1-338): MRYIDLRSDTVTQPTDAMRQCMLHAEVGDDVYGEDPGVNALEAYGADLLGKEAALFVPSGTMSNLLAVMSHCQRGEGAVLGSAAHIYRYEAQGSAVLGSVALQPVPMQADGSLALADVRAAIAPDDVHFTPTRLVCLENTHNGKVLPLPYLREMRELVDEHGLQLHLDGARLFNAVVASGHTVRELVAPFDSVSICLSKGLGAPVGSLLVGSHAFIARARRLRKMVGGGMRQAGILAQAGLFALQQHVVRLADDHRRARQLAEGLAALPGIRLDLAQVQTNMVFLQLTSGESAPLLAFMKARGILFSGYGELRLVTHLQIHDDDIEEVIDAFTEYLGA

[2] = molecular target: T1, LTAaj (L-threonine aldolase from Aeromonas jandaei; L-allo-threonine aldolase); assay: UV-vis spectroscopy of internal aldimine ([…]-420 nm); format: binding; settings: 50 mM sodium phosphate pH 8.0, 22 °C; covalent Schiff base with K199

| SMILES | UV-vis spectroscopy of external aldimine (420 nm) and quinonoid (495 nm) [1] | UV-vis spectroscopy of internal aldimine (410-420 nm) [2] |
| --- | --- | --- |
| NCC(=O)O [glycine] | external aldimine with the glycine substrate in the wild type LTAaj and its mutants |  |
| Cc1ncc(COP(=O)(O)O)c(C=O)c1O [PLP] |  | Formation of the (A) internal aldimine |
